Columns and labels:
[1] = system: Staphylococcus aureus; test: Checkerboard synergy (FICI) of antibiotics with SP-BIM; type: cell-based; conditions: Staphylococcus aureus, SP-BIM 13 alone, one value per antibiotic's checkerboard
[2] = system: Streptococcus pneumoniae; test: as above; type: cell-based; conditions: Streptococcus pneumoniae, SP-BIM 13 alone, one value per antibiotic's checkerboard
[3] = system: Bacillus cereus; test: as above; type: cell-based; conditions: SP-BIM 13 alone, one value per antibiotic's checkerboard
[4] = system: Escherichia coli; test: as above; parameters: MIC SP-BIM 13 only / MIC in combination: Antibiotic: unit not given beside the values; conditions: SP-BIM 13 alone
[5] = system: clinical antibiotic resistant isolates of MRSA; test: Checkerboard resistance breaking by SP-BIM 13; type: cell-based, Staphylococcus aureus; conditions: clinical MRSA strains; in most cases
[6] = system: Candida albicans; test: Checkerboard synergy (FICI) of antibiotics with SP-BIM; parameters: MIC SP-BIM 13 only / MIC in combination: Antibiotic / MIC antibiotic only: unit not given beside the values; conditions: SP-BIM 13 alone
[7] = system: Enterococcus faecium; test: as above; type: cell-based; conditions: Enterococcus faecium; SP-BIM 13 alone, one value per antibiotic's checkerboard; read-out: MIC SP-BIM 13 only
[8] = system: Streptococcus pneumoniae; test: Adjuvant broth microdilution (antibiotic MIC with SP-BIM at 50 μg/mL); type: cell-based; conditions: Streptococcus pneumoniae, Streptococcus pneumonia, SP-BIM at 50 μg mL^−1
[9] = system: Klebsiella pneumoniae; test: Checkerboard synergy (FICI) of antibiotics with SP-BIM; type: cell-based; conditions: SP-BIM 13 alone, one value per antibiotic's checkerboard, read-out: MIC SP-BIM 13 only

For `Oc1cc(C(c2c[nH]c3ccccc23)c2c[nH]c3ccccc23)cc(O)c1O` [SP-BIM 13, 5-(di(1H-indol-3-yl)methyl)benzene-1,2,3-triol], the “MIC SP-BIM 13 only” value [1] was 125 µg/mL, the MIC ([1]; read-out: MIC SP-BIM 13 only) was 63 µg/mL and the “MIC SP-BIM 13 only” value [2] was 125 µg/mL. For the same molecule, the MIC ([2]; read-out: MIC SP-BIM 13 only) was > 250 µg/mL, the “MIC SP-BIM 13 only” value [3] was >250 µg/mL and the MIC ([3]; read-out: MIC SP-BIM 13 only) was 125 µg/mL. The “MIC SP-BIM 13 only” value [4] was >250, the “reduction of ampicillin MICs by SP-BIM 13” value [5] was 100 fold and the “MIC SP-BIM 13 only” value [6] was >250. For the same molecule, the MIC [7] was 125 µg/mL, the MIC ([8]; read-out: MIC of Kanamvcin with SP-BIM) was 4 µg/mL and the MIC ([8]; read-out: MIC of Vancomvcin with SP-BIM) was < 0.2 µg/mL. For the same molecule, the MIC [9] was > 250 µg/mL.

Reference: US12285407B2, “Bis-indolylmethane derivatives and uses thereof” (The University of The West Indies, priority 2018, dated 2025)
